The values that follow are results of earlier work, collected in patent publication US20230047393A1 (EWHA DrugDesignHouse Co.,Ltd., priority 2021, published 2023).

Series [1] has as its system TFG-β2-treated perfused human anterior segments. As to conditions: cited from earlier work.
The subject of another series is rabbit GFS model. To be noted: cited from earlier work.
Series [2] relates to TFG-β2-treated trabecular meshwork cell cultures. To be noted: cited from earlier work.
Another series relates to rabbit PVR trauma model. To be noted: intravitreal injection; cited from earlier work.
The test system of series [3] is rabbit model of trabeculectomy. To be noted: cited from earlier work.
The test system of a further series is mouse B16 melanoma model. As to conditions: mouse B16 melanoma model, with enhanced CTL responses; cited from earlier work.
In series [4] the test system is laser-induced CNV in retina of mice. As to conditions: day 14 after laser-induced CNV formation, vs PBS treated control (p<0.05, n=5 per group); cited from earlier work.
For series [5], the system named is human lens epithelial cells line SRA01/04. As to conditions: SRA01/04 cells, nontoxic concentrations; cited from earlier work.

As to `NC(=O)c1ccc(-c2nc(-c3ccc4c(c3)OCO4)c(-c3ccccn3)[nH]2)cc1` [SB-431542], the level of fibronectin result in series [1] is on record as “reduces”. Moreover, the “post-surgical scarring and fibrosis after GFS” value in the series on rabbit GFS model is given as “decreases”. Further, in series [2], the “levels of fibronectin and plasminogen activator inhibitor-1 (PAI-1)” value is on record as “reduces”.
As for `c1ccc(-c2[nH]ncc2-c2ccnc3ccccc23)nc1` [LY-364947], the “PVR development and subsequent tractional retinal detachment” value with rabbit PVR trauma model is on record as “prevents”.
`Cc1cccc(-c2[nH]c(C(C)(C)C)nc2-c2ccc3c(c2)OCO3)n1` [SB-505124]: in series [3], the TFG-β activity result is on record as “inhibited” and the bleb survival result is “promoted”. Further, in the series with rabbit GFS model, the “ocular scarring following GFS” value is on record as “prevents”.
Take `Cc1cccc(-c2nn3c(c2-c2ccnc4ccc(C(N)=O)cc24)CCC3)n1` [LY-2157299, reference compound]: the progression of melanoma result in the series on mouse B16 melanoma model is recorded as “suppress”. In series [4], the “neovascular area in retina” value is “reduces”.
Take `Cc1ccc(=O)n(-c2ccccc2)c1` [Pirfenidone]: the “TGF-β-induced proliferation, migration, and EMT” value in series [5] is recorded as “inhibits”.
